# Experimental data as given in PMC9250534, “Synthesis and direct assay of large macrocycle diversities by combinatorial late-stage modification at picomole scale” (Nature Communications, 2022).
# Numbered stars: 1 amine (or outer) side, 2 acyl side, 3 side chain; on linkers, the order of the positions; unused ones are H or OH. Bridge positions count the residues as written; N and C are the ends. Square brackets hold non-standard residues; d marks the D form. Peptide text beside a SMILES is read from it. * marks the point of attachment. Nicotinoyl(6-OMe) = COc1ccc(C(=O)*)cn1; 2Thenoyl(5-Cl) = O=C(c1ccc(Cl)s1)*; Benzoyl(4-Cl) = O=C(c1ccc(Cl)cc1)*; Phenoxyacetyl = O=C(COc1ccccc1)*; Cysteamide = C(CS[*:3])N[*:1]; Me3Gly = C[N+](C)(C)CC(=O)*; X8 = O=C(c1ccc(=O)[nH]n1)*; Api = NC1(C(=O)O)CCNCC1; Dap = NC[C@H](N)C(=O)O; Mpa = O=C(O)CCS
# Target: MDM2 (Homo sapiens, UniProt Q00987)
# Sequence (Q00987 whole entry): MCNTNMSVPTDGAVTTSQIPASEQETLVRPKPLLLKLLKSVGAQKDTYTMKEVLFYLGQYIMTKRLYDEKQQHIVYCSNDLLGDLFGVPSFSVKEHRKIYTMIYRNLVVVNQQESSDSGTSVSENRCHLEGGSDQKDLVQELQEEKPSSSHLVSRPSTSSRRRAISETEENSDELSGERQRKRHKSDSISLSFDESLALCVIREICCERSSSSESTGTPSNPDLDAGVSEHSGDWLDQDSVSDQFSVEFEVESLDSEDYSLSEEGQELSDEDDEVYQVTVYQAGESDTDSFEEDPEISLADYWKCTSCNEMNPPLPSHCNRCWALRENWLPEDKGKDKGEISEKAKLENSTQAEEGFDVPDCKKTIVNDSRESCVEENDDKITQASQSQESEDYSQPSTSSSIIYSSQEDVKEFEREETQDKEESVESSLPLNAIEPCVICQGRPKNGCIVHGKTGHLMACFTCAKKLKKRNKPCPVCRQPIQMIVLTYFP
# Assay: MDM2 binding screen: displacement of fluorescent p53 peptide probe FP53 (fluorescence polarization)
# Settings: for fraction fluorescent probe displaced, Screen: initial screen; for fraction fluorescent probe displaced, Screen / fraction fluorescent probe displaced, Replicate: crude macrocycle reactions; for fraction fluorescent probe displaced: 10 µM macrocycle concentration, crude acylated macrocycle (scaffold Mpa-AA1-AA2-AA3 x carboxylic acid), p53-based fluorescent peptide, human MDM2
# Summary of the method: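 Macrocycle reaction products at a final 10 µM were tested for displacement of a p53-based fluorescent peptide from human MDM2. Fluorescence anisotropy (ex 485/em 535 nm) was read once per macrocycle at 25 °C.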
smiles,measurement,setting,value
O=C1CCSSCCNC(=O)c2cccc(c2)CNC(=O)[C@H](Cc2ccccc2)NC(=O)C2(CCN(C(=O)c3ccc(Cl)s3)CC2)N1 [X D6 F B5 Acid 14],"fraction fluorescent probe displaced, Screen",Acid 14,-0.0337
same,"fraction fluorescent probe displaced, Replicate",Acid 14,0.12
O=C1CCSSCCNC(=O)C2CN(C(=O)c3ccc(Cl)s3)CCN2C(=O)C(Cc2c[nH]c3ccccc23)NC(=O)CCN1 (mixture of isomers) [X B2 W D7 Acid 14],"fraction fluorescent probe displaced, Screen",Acid 14,0.23
same,"fraction fluorescent probe displaced, Replicate",Acid 14,0.10
O=C(NC[C@@H]1NC(=O)[C@@H]2CCCN2C(=O)CCSSCCNC(=O)[C@H](Cc2ccccc2)NC1=O)c1ccc(Cl)cc1 [X-B1-D3-F + A25] ([Mpa]P[Dap](Benzoyl(4-Cl))F-Cysteamide; disulfide 1-C),fraction fluorescent probe displaced,,0.2195
O=C1CCNC(=O)C2CN(C(=O)C=Cc3ccccc3)CCN2C(=O)CCSSCCNC(=O)C(Cc2c[nH]c3ccccc23)N1 (centres unmarked) [X D7 B2 W Acid 91],"fraction fluorescent probe displaced, Screen",Acid 91,0.11
same,"fraction fluorescent probe displaced, Replicate",Acid 91,0.07
O=C1CCNC(=O)[C@H](CNC(=O)c2ccc(Cl)cc2)NC(=O)[C@H](Cc2ccccc2)NC(=O)CCSSCCN1 [X F D3 B2 Acid 25],"fraction fluorescent probe displaced, Screen",Acid 25,0.19
same,"fraction fluorescent probe displaced, Replicate",Acid 25,0.0211
O=C1CCNC(=O)C2(CCN(C(=O)/C=C/c3ccccc3)CC2)NC(=O)CCSSCCNC(=O)[C@H](Cc2c[nH]c3ccccc23)N1 [X D6 B2 W Acid 91],"fraction fluorescent probe displaced, Screen",Acid 91,0.19
same,"fraction fluorescent probe displaced, Replicate",Acid 91,0.09
O=C1CCSSCCNC(=O)[C@H](Cc2ccccc2)NC(=O)[C@@H]2CCCN2C(=O)[C@H](CNC(=O)c2ccc(Cl)s2)N1 [X D3 B1 F Acid 14] ([Mpa][Dap](2Thenoyl(5-Cl))PF-Cysteamide; disulfide 1-C),"fraction fluorescent probe displaced, Screen",Acid 14,0.11
same,"fraction fluorescent probe displaced, Replicate",Acid 14,0.07
O=C1CCSSCCNC(=O)[C@@H]2C[C@H](NC(=O)c3ccc(Cl)cc3)CN2C(=O)[C@H](Cc2ccccc2)NC(=O)c2cccc(c2)CN1 [X B5 F D5 Acid 25],"fraction fluorescent probe displaced, Screen",Acid 25,0.0244
same,"fraction fluorescent probe displaced, Replicate",Acid 25,0.10
O=C(/C=C/c1ccccc1)NC[C@@H]1NC(=O)[C@H](Cc2c[nH]c3ccccc23)NC(=O)c2cccc(c2)CNC(=O)CCSSCCNC1=O [X B5 W D3 Acid 91],"fraction fluorescent probe displaced, Screen",Acid 91,0.16
same,"fraction fluorescent probe displaced, Replicate",Acid 91,0.12
O=C1CCSSCCNC(=O)[C@@H]2C[C@H](NC(=O)c3ccc(Cl)s3)CN2C(=O)[C@H](Cc2c[nH]c3ccccc23)NC(=O)CCN1 [X B2 W D5 Acid 14],"fraction fluorescent probe displaced, Screen",Acid 14,0.11
same,"fraction fluorescent probe displaced, Replicate",Acid 14,0.15
NC[C@@H]1NC(=O)[C@@H]2CCCN2C(=O)CCSSCCNC(=O)[C@H](Cc2c[nH]c3ccccc23)NC1=O [X-B1-D3-W + No Acid] ([Mpa]P[Dap]W-Cysteamide; disulfide 1-C),fraction fluorescent probe displaced,,0.1075
O=C1CCSSCCNC(=O)c2cccc(c2)CNC(=O)[C@H](CNC(=O)c2ccc(Cl)cc2)NC(=O)[C@H](Cc2ccccc2)N1 [X F D3 B5 Acid 25],"fraction fluorescent probe displaced, Screen",Acid 25,0.0569
same,"fraction fluorescent probe displaced, Replicate",Acid 25,0.07
O=C(NC[C@@H]1NC(=O)[C@@H]2CCCN2C(=O)CCSSCCNC(=O)[C@H](Cc2ccccc2)NC1=O)c1ccc(=O)[nH]n1 [X-B1-D3-F + A86] ([Mpa]P[Dap](X8)F-Cysteamide; disulfide 1-C),fraction fluorescent probe displaced,,0.01272
O=C1CCSSCCNC(=O)[C@H](Cc2c[nH]c3ccccc23)NC(=O)c2cccc(c2)CNC(=O)C2(CCN(C(=O)c3ccc(Cl)cc3)CC2)N1 [X D6 B5 W Acid 25],"fraction fluorescent probe displaced, Screen",Acid 25,0.25
same,"fraction fluorescent probe displaced, Replicate",Acid 25,0.22
O=C1CCSSCCNC(=O)C2CC(NC(=O)c3ccc(Cl)s3)CN2C(=O)c2cccc(c2)CNC(=O)C(Cc2c[nH]c3ccccc23)N1 (centres unmarked) [X W B5 D5 Acid 14],"fraction fluorescent probe displaced, Screen",Acid 14,0.14
same,"fraction fluorescent probe displaced, Replicate",Acid 14,0.10
O=C1CCSSCCNC(=O)C2CCCN(C2)C(=O)C2CN(C(=O)c3ccc(Cl)s3)CCN2C(=O)C(Cc2ccccc2)N1 (centres unmarked) [X F D7 B4 Acid 14],"fraction fluorescent probe displaced, Screen",Acid 14,-0.00483
same,"fraction fluorescent probe displaced, Replicate",Acid 14,0.12
O=C1CCSSCCNC(=O)C2CN(C(=O)c3ccc(Cl)cc3)CCN2C(=O)C(Cc2c[nH]c3ccccc23)NC(=O)c2cccc(c2)CN1 (centres unmarked) [X B5 W D7 Acid 25],"fraction fluorescent probe displaced, Screen",Acid 25,0.12
same,"fraction fluorescent probe displaced, Replicate",Acid 25,0.07
O=C1CCSSCCNC(=O)C(Cc2ccccc2)NC(=O)C2CCCN2C(=O)C2(CCN(C(=O)c3ccc(Cl)s3)CC2)N1 (centres unmarked) [X D6 B1 F Acid 14] ([Mpa][Api](2Thenoyl(5-Cl))PF-Cysteamide; disulfide 1-C; configuration not given here),"fraction fluorescent probe displaced, Screen",Acid 14,-0.00483
same,"fraction fluorescent probe displaced, Replicate",Acid 14,0.0465
O=C1CCNC(=O)C(Cc2c[nH]c3ccccc23)NC(=O)C2CN(C(=O)c3ccc(Cl)s3)CCN2C(=O)CCSSCCN1 (centres unmarked) [X D7 W B2 Acid 14],"fraction fluorescent probe displaced, Screen",Acid 14,0.11
same,"fraction fluorescent probe displaced, Replicate",Acid 14,0.10
O=C1CCNC(=O)C(Cc2ccccc2)NC(=O)C2CC(NC(=O)c3ccc(Cl)s3)CN2C(=O)CCSSCCN1 (centres unmarked) [X D5 F B2 Acid 14],"fraction fluorescent probe displaced, Screen",Acid 14,0.08
same,"fraction fluorescent probe displaced, Replicate",Acid 14,0.0465
O=C(COc1ccccc1)NC[C@@H]1NC(=O)[C@@H]2CCCN2C(=O)CCSSCCNC(=O)[C@H](Cc2ccccc2)NC1=O [X-B1-D3-F + A13] ([Mpa]P[Dap](Phenoxyacetyl)F-Cysteamide; disulfide 1-C),fraction fluorescent probe displaced,,0.1199
COc1ccc(C(=O)NC[C@@H]2NC(=O)[C@@H]3CCCN3C(=O)CCSSCCNC(=O)[C@H](Cc3ccccc3)NC2=O)cn1 [X-B1-D3-F + A10] ([Mpa]P[Dap](Nicotinoyl(6-OMe))F-Cysteamide; disulfide 1-C),fraction fluorescent probe displaced,,0.01535
O=C1CCSSCCNC(=O)c2cccc(c2)CNC(=O)[C@H](CNC(=O)c2ccc(Cl)s2)NC(=O)[C@H](Cc2ccccc2)N1 [X F D3 B5 Acid 14],"fraction fluorescent probe displaced, Screen",Acid 14,0.0241
same,"fraction fluorescent probe displaced, Replicate",Acid 14,-0.03
O=C1NC(Cc2ccccc2)C(=O)NCCSSCCC(=O)N2CC(NC(=O)c3ccc(Cl)s3)CC2C(=O)NCc2cccc1c2 (centres unmarked) [X D5 B5 F Acid 14],"fraction fluorescent probe displaced, Screen",Acid 14,-0.0337
same,"fraction fluorescent probe displaced, Replicate",Acid 14,0.0465
O=C1CCSSCCNC(=O)c2cccc(c2)CNC(=O)C2(CCN(C(=O)/C=C/c3ccccc3)CC2)NC(=O)[C@H](Cc2ccccc2)N1 [X F D6 B5 Acid 91],"fraction fluorescent probe displaced, Screen",Acid 91,-0.0241
same,"fraction fluorescent probe displaced, Replicate",Acid 91,-0.0333
C[N+](C)(C)CC(=O)NC[C@@H]1NC(=O)[C@@H]2CCCN2C(=O)CCSSCCNC(=O)[C@H](Cc2c[nH]c3ccccc23)NC1=O [X-B1-D3-W + A92] ([Mpa]P[Dap](Me3Gly)W-Cysteamide; disulfide 1-C),fraction fluorescent probe displaced,,-0.1286
O=C1CCSSCCNC(=O)[C@H](Cc2c[nH]c3ccccc23)NC(=O)C2(CCN(C(=O)/C=C/c3ccccc3)CC2)NC(=O)CCN1 [X B2 D6 W Acid 91],"fraction fluorescent probe displaced, Screen",Acid 91,0.16
same,"fraction fluorescent probe displaced, Replicate",Acid 91,0.07
O=C1CCSSCCNC(=O)[C@@H]2CCCN2C(=O)[C@H](Cc2c[nH]c3ccccc23)NC(=O)[C@H](CNC(=O)c2ccc(Cl)cc2)N1 [X D3 W B1 Acid 25] ([Mpa][Dap](Benzoyl(4-Cl))WP-Cysteamide; disulfide 1-C),"fraction fluorescent probe displaced, Screen",Acid 25,0.12
same,"fraction fluorescent probe displaced, Replicate",Acid 25,0.22
